The NIST ThermoML archive (doi:10.1016/j.tca.2007.09.001)
± gives the expanded uncertainty stated by the source.

Experiment: molar heat capacity at constant pressure
Details: 101.33 kPa, Crystal, Large sample (1 g) DSC

[Co+3].[Nd+3].[O-2].[O-2].[O-2] [cobalt(III) neodymium(III) oxide]
Details | molar heat capacity at constant pressure [J/K/mol]
130 K | 57.2 ± 1.1
140 K | 62.7 ± 1.3
150 K | 67.7 ± 1.4
160 K | 72.3 ± 1.4
170 K | 76.4 ± 1.5
180 K | 80.2 ± 1.6
190 K | 83.5 ± 1.7
200 K | 86.5 ± 1.7
210 K | 89.2 ± 1.8
220 K | 91.6 ± 1.8
230 K | 93.8 ± 1.9
240 K | 95.8 ± 1.9
250 K | 97.8 ± 2
260 K | 98.7 ± 2
270 K | 100.5 ± 2
280 K | 102.3 ± 2
290 K | 104.1 ± 2.1
298.15 K | 105.8 ± 2.1
300 K | 105.9 ± 2.1
325 K | 110.3 ± 2.2
350 K | 116 ± 2.3
375 K | 120.4 ± 2.4
400 K | 122.9 ± 2.5
425 K | 124.8 ± 2.5
450 K | 127.1 ± 2.5
475 K | 130.3 ± 2.6
500 K | 134.5 ± 2.7
525 K | 139.2 ± 2.8
550 K | 144.1 ± 2.9
575 K | 148.3 ± 3
600 K | 151.4 ± 3
625 K | 153.2 ± 3.1
650 K | 153.3 ± 3.1
675 K | 152.1 ± 3
700 K | 149.9 ± 3
725 K | 147.1 ± 2.9
750 K | 144.3 ± 2.9
775 K | 141.9 ± 2.8
800 K | 140.3 ± 2.8
825 K | 139.4 ± 2.8
850 K | 138.5 ± 2.8
